Converted amounts (≈) assume the structure as drawn.
Experiments:
Pasteurella multocida = assay: Minimum inhibitory concentration against Pasteurella multocida was determined; format: functional
[1] = tested on: Brachyspira hyodysenteriae; assay: Minimum inhibitory concentration against Serpulina hyodysenteriae was determined; format: functional
[2] = Pasteurella multocida, read-out: MIC
[3] = Brachyspira hyodysenteriae, read-out: MIC

| SMILES | MIC (Pasteurella multocida; [2]) | MIC [1, 3] | MIC (Pasteurella multocida) | MIC [1] |
| --- | --- | --- | --- | --- |
| C/C(=C\c1ccc(O[C@@H]2O[C@H]([C@H](C)O)[C@@H](O)[C@@H]2O)c(O)c1)C(=O)N[C@@H]1CCCC[C@@H]1O | > 200 µg/mL | > 200 µg/mL |  |  |
| C=CCOc1ccc(/C=C(\C)C(=O)N[C@@H]2[C@H](O)[C@@H](O)CC[C@@H]2O)cc1O |  |  | >200 µg/mL | 100 µg/mL (≈ 275 µM) |
| C=CCOc1ccc(/C=C(\C)C(=O)N[C@@H]2[C@H](O)CCC[C@@H]2O)cc1O | 100 µg/mL (≈ 288 µM) | 12.5 µg/mL (≈ 36 µM) |  |  |
| C=CCOc1ccc(/C=C(\C)C(=O)N[C@@H]2[C@H](O)[C@@H](O)[C@H]3OCO[C@H]3[C@@H]2O)cc1O | 1.56 µg/mL (≈ 3.83 µM) | 0.78 µg/mL (≈ 1.91 µM) |  |  |
| C=CCOc1ccc(/C=C(\C)C(=O)N[C@@H]2[C@H](O)[C@@H](O)CC[C@@H]2O)cc1O (racemic) |  |  | 25 µg/mL (≈ 68.8 µM) | 6.25 µg/mL (≈ 17.2 µM) |
| CC(=O)[C@H]1O[C@@H](Oc2ccc(/C=C(\C)C(=O)N[C@@H]3[C@H](O)[C@@H](O)[C@H]4OCO[C@H]4[C@@H]3O)cc2O)[C@@H](O)[C@@H]1O [HYGROMYCIN A] | 1.56 µg/mL (≈ 3.05 µM) | 1.56 µg/mL (≈ 3.05 µM) |  |  |
